According to US6028195A, “Piperazine derivatives and process for the preparation thereof” (Samjin Pharmaceutical Co., Ltd., priority 1996, dated 2000):
In brackets after ≈: the same amount, converted by molar mass. Read-outs that look alike come from different tables or passages of the source.

Legend:
[1] = system: A549 (human non-small lung cell); experiment: SRB assay, in vitro antitumor effect against A549; format: cell-based; details: for IC50: Homo sapiens
Description: (§1) In vitro antitumor effect against human tumor cell lines.
(§2) b. 5×10^3 ~2×10^4 cells were added into each well of 96-well plate and cultured in 5% CO2 incubator, at 37° C., for 24 hours.
(§3) c. Each sample drug was dissolved in a little DMSO and diluted with the used medium to a prescribed concentration for experiments, wherein the final concentration of DMSO was controlled below 0.5%.
(§4) d. Medium of each well cultured for 24 hours as above b. was removed by aspiration. Each 200 μl of drug samples prepared in c. was added into each well and the wells were cultured for 48 hours. Tz(time zero) plates were collected at the point of time drugs were added.
(§5) e. According to the SRB assay method, cell fixing with TCA, staining with 0.4% SRB solution, washing with 1% acetic acid and elution of dye with 10 mM Tris solution were carried out on Tz plates and culture-ended plates, and then, OD values were measured at 520 nm.
(§6) a. Time zero(Tz) value was determined with measuring the SRB protein value at the point of time drugs were added.
(§7) b. Control value(C) was determined with the OD value of an well untreated with drug.
(§8) c. Drug-treated test value(T) was determined with the OD value of drug-treated well.
(§9) d. Effects of drugs were estimated with growth stimulation, net growth inhibition, net killing etc. calculated from Tz, C and T.
(§10) e. If T≥Tz, cellular response function was calculated by 100×(T-Tz)/(C-Tz), and if T<Tz, by 100×(T-Tz)/Tz.

[2] = system: SKOV-3 (human ovarian); experiment: SRB assay, in vitro antitumor effect against SKOV-3; format: cell-based; details: SK-OV-3, 48 hours; for IC50: Homo sapiens, read-out: ED50 (the source's name)
Description: as §1, §2, §3, §4, §5, §6, §7, §8, §9, §10

[3] = system: SKMEL-2 (human melanoma); experiment: SRB assay, in vitro antitumor effect against SKMEL-2; format: cell-based; details: SK-MEL-2, 48 hours; for IC50: Homo sapiens, read-out: ED50 (the source's name)
Description: as §1, §2, §3, §4, §5, §6, §7, §8, §9, §10

[4] = system: XF 498 (human CNS); experiment: SRB assay, in vitro antitumor effect against XF 498; format: cell-based; details: XF-498, 48 hours; for IC50: Homo sapiens, XF498, read-out: ED50 (the source's name)
Description: as §1, §2, §3, §4, §5, §6, §7, §8, §9, §10

[5] = system: HCT-15 (human colon); experiment: SRB assay, in vitro antitumor effect against HCT-15; format: cell-based; details: for IC50: Homo sapiens
Description: as §1, §2, §3, §4, §5, §6, §7, §8, §9, §10

[6] = system: mouse leukemia P388 cells; experiment: In vivo antitumor effects against mouse leukemia P388 cells in BDF1 mice; details: P388, ip, abdominal cavity
Description: In vivo antitumor effects against mouse leukemia P388 cells.
1) Leukemia P388 cells being transfer-cultured successively in DBA/2 mouse, were grafted into each mouse of a group comprising 8 mice of 6 week old BDF1 mouse with the dose of 1×10^6 cells/0.1 ml. […]
3) With observation everyday, survival times of tested mice were measured. Antitumor activities was determined in such a manner that the increasing ratio(T/C%) of average survival days of drug-treated groups compared with the control group was calculated using the mean survival times of each tested groups.

[7] = Acute toxicity test (LD50), Litchfield-Wilcoxon method; details: mouse, in vivo, ip, male ICR mice, 14 days
Description: Acute toxicity test (LD50): Litchfield-Wilcoxon method.
6 weeks old ICR mice(male 30±2.0 g) were fed freely with solid feed and water at room temperature, 23±1° C. and at humidity 60±5%. Sample drugs were injected into the abdominal cavities of mice, while each group comprises 6 mice. Observed during 14 days, external appearances and life or dead were recorded, and then, visible pathogenies were observed from dead animals by dissection. LD50 value was calculated by Litchfiled-wilcoxon method.

[8] = A549, 48 hours, read-out: ED50 (the source's name)
[9] = HCT 15, 48 hours, read-out: ED50 (the source's name)
[10] = on days 1, 4, 8, read-out: T/C(%)
[11] = nine everyday, read-out: T/C(%)

SMILES	IC50 [1, 8]	IC50 [2]	IC50 [3]	IC50 [4]	IC50 [5, 9]	other results
COc1cc(OC)cc(N2CCN(C(=O)Nc3cc(C)c(C)cc3OC)CC2)c1 [Example 171, 1-[(4,5-Dimethyl-2-methoxyphenyl)aminocarbonyl]-4-(3,5-dimethoxyphenyl)piperazine]	0.000645 µg/mL (≈ 0.00161 µM)	0.00372 µg/mL (≈ 0.00931 µM)	0.00323 µg/mL (≈ 0.00809 µM)	0.000572 µg/mL (≈ 0.00143 µM)	0.00181 µg/mL (≈ 0.00453 µM)	response vs control in vivo at 25 mg/kg [6, 10]: 100%; response vs control in vivo at 50 mg/kg [6, 10]: 100%; response vs control in vivo at 100 mg/kg [6, 10]: 140%
CCc1nc(OC)c(NC(=O)N2CCN(c3cc(C)cc(C)c3)CC2)cc1C [Example 13, 1-[(6-Ethyl-2-methoxy-5-methylpyridin-3-yl)aminocarbonyl]-4-(3,5-dimethylphenyl)piperazine]	–	–	–	–	–	LD50 at 336 h [7]: 285 mg/kg
COc1nc(C)c(C)cc1N(C)C(=O)N1CCN(c2cc(C)cc(C)c2)CC1 [Example 135, 1-[N-(5,6-Dimethyl-2-methoxypyridin-3-yl)-N-methylaminocarbonyl]-4-(3,5-dimethylphenyl)piperazine]	0.056 µg/mL (≈ 0.146 µM)	0.092 µg/mL (≈ 0.241 µM)	0.102 µg/mL (≈ 0.267 µM)	0.06 µg/mL (≈ 0.157 µM)	0.066 µg/mL (≈ 0.173 µM)	response vs control in vivo at 25 mg/kg [6, 11]: 100%; response vs control in vivo at 50 mg/kg [6, 11]: 110%; response vs control in vivo at 100 mg/kg [6, 11]: 150%
COc1cc(C)c(C)cc1NC(=O)N1CCN(c2ccccc2)CC1 [Example 170, 1-[(4,5-Dimethyl-2-methoxyphenyl)aminocarbonyl]-4-phenylpiperzine]	–	–	–	–	–	LD50 at 336 h [7]: 573 mg/kg
CCc1nc(OC)c(NC(=O)N2CCN(c3cc(OC)cc(OC)c3)CC2)cc1C [Example 12, 1-[(6-Ethyl-2-methoxy-5-methylpyridin-3-yl)aminocarbonyl]-4-(3,5-dimethoxyphenyl)piperazine]	–	–	–	–	–	LD50 at 336 h [7]: 165 mg/kg
COc1cc(C)c(C)cc1NC(=O)N1CCN(c2cc(-c3ccccc3)ccc2OC)CC1 [Example 186, 1-[(4,5-Dimethyl-2-methoxyphenyl)aminocarbonyl]-4-(2-methoxy-5-phenylphenyl)piperazine]	–	–	–	–	–	LD50 at 336 h [7]: > 2000 mg/kg
CCc1cc(N(C)C(=O)N2CCN(c3cc(C)cc(C)c3)CC2)c(OC)nc1C [Example 144, 1-[N-(5-Ethyl-2-methoxy-6-methylpyridin-3-yl)-N-methylaminocarbonyl]-4-(3,5-dimethylphenyl)piperazine]	–	–	–	–	–	response vs control in vivo at 50 mg/kg [6, 11]: 110%; response vs control in vivo at 100 mg/kg [6, 11]: 110%; response vs control in vivo at 200 mg/kg ([6]; 200 mg/kg, nine everyday, read-out: T/C(%)): 125%
COc1cc(C)c(C)cc1NC(=S)N1CCN(c2cc(F)cc(F)c2)CC1 [Example 200, 1-[(4,5-Dimethyl-2-methoxyphenyl)aminothiocarbonyl]-4-(3,5-difluorophenyl)piperazine]	0.5 µg/mL (≈ 1.28 µM)	0.53 µg/mL (≈ 1.35 µM)	0.26 µg/mL (≈ 0.664 µM)	1.01 µg/mL (≈ 2.58 µM)	0.44 µg/mL (≈ 1.12 µM)	–
COc1cc(C)c(C)cc1NC(=O)N1CCN(c2cccc(OC(C)=O)c2)CC1 [Example 182, 1-[(4,5-Dimethyl-2-methoxyphenyl)aminocarbonyl]-4-(3-acetoxyphenyl)piperazine]	–	–	–	–	–	LD50 at 336 h [7]: 348 mg/kg
COc1cc(OC)cc(N2CCN(C(=O)N(C)c3cc4ccccc4nc3OC)CC2)c1 [Example 98, 1-[N-(2-Methoxyquinolin-3-yl)-N-methylaminocarbonyl]-4-(3,5-dimethoxyphenyl)piperazine]	–	–	–	–	–	response vs control in vivo at 25 mg/kg [6, 11]: 110%; response vs control in vivo at 50 mg/kg [6, 11]: 110%; response vs control in vivo at 100 mg/kg [6, 11]: 150%
COc1cc(C)c(C)cc1NC(=O)N1CCN(c2cccc(O)c2)CC1 [Example 179, 1-[(4,5-Dimethyl-2-methoxyphenyl)aminocarbonyl]-4-(3-hydroxylphenyl)piperazine]	1.04 µg/mL (≈ 2.93 µM)	0.98 µg/mL (≈ 2.76 µM)	0.72 µg/mL (≈ 2.03 µM)	0.74 µg/mL (≈ 2.08 µM)	0.63 µg/mL (≈ 1.77 µM)	–
COc1nc(C)c(C)cc1NC(=S)N1CCN(c2cccc(O)c2)CC1 [Example 24, 1-[(5,6-Dimethyl-2-methoxypyridin-3-yl)aminothiocarbonyl]-4-(3-hydroxyphenyl)piperazine]	0.03 µg/mL (≈ 0.0805 µM)	0.006 µg/mL (≈ 0.0161 µM)	0.01 µg/mL (≈ 0.0268 µM)	0.234 µg/mL (≈ 0.628 µM)	0.01 µg/mL (≈ 0.0268 µM)	–
CCc1cc(N(C)C(=O)N2CCN(c3cc(OC)cc(OC)c3)CC2)c(OC)nc1C [Example 143, 1-[N-(5-Ethyl-2-methoxy-6-methylpyridin-3-yl)-N-methylaminocarbonyl]-4-(3,5-dimethoxyphenyl)piperazine]	0.0004 µg/mL (≈ 0.000933 µM)	0.0095 µg/mL (≈ 0.0222 µM)	0.0121 µg/mL (≈ 0.0282 µM)	0.0009 µg/mL (≈ 0.0021 µM)	0.0108 µg/mL (≈ 0.0252 µM)	–
N.N.[Cl][Pt][Cl] [Cisplatin, reference compound]	–	–	–	–	–	ED50 ([1]; A549, 48 hours): 0.8184 µg/mL; ED50 [2]: 0.7134 µg/mL; ED50 [3]: 0.7147 µg/mL; ED50 [4]: 0.7771 µg/mL; ED50 ([5]; HCT 15, 48 hours): 3.0381 µg/mL
C=Cc1cc(NC(=O)N2CCN(c3cc(F)cc(F)c3)CC2)c(OC)nc1C [Example 75, 1-[(2-Methoxy-6-methyl-5-vinylpyridin-3-yl)aminocarbonyl]-4-(3,5-difluorophenyl)piperazine]	0.19 µg/mL (≈ 0.489 µM)	0.09 µg/mL (≈ 0.232 µM)	0.09 µg/mL (≈ 0.232 µM)	0.13 µg/mL (≈ 0.335 µM)	0.12 µg/mL (≈ 0.309 µM)	–
C=C(C)c1ccccc1N1CCN(C(=O)Nc2cc(CC)c(C)nc2OC)CC1 [Example 5, 1-[(5-Ethyl-6-methyl-2-methoxypyridin-3-yl)aminocarbonyl]-4-(2-isopropenylphenyl)piperazine]	0.71 µg/mL (≈ 1.8 µM)	0.96 µg/mL (≈ 2.43 µM)	0.6 µg/mL (≈ 1.52 µM)	> 10 µg/mL	0.96 µg/mL (≈ 2.43 µM)	–
COc1cc(C)c(C)cc1N(C)C(=O)N1CCN(c2cc(C)cc(C)c2)CC1 [Example 191, 1-[N-(4,5-Dimethyl-2-methoxyphenyl)-N-methylaminocarbonyl]-4-(3,5-dimethylphenyl)piperazine]	0.09 µg/mL (≈ 0.236 µM)	0.28 µg/mL (≈ 0.734 µM)	0.06 µg/mL (≈ 0.157 µM)	0.47 µg/mL (≈ 1.23 µM)	0.4 µg/mL (≈ 1.05 µM)	–
COc1cc(C)c(C)cc1NC(=S)N1CCN(c2ccccc2F)CC1 [Example 202, 1-[(4,5-Dimethyl-2-methoxyphenyl)amminothiocarbonyl]-4-(2-fluorophenyl)piperazine]	0.57 µg/mL (≈ 1.53 µM)	1.26 µg/mL (≈ 3.37 µM)	0.48 µg/mL (≈ 1.29 µM)	2.09 µg/mL (≈ 5.6 µM)	0.64 µg/mL (≈ 1.71 µM)	–
COc1nc2ccccc2cc1NC(=O)N1CCN(c2cccc(Cl)c2)CC1 [Example 88, 1-[(2-Methoxyquinolin-3-yl)aminocarbonyl]-4-(3-chlorophenyl)piperazine]	–	0.043 µg/mL (≈ 0.108 µM)	0.02 µg/mL (≈ 0.0504 µM)	0.009 µg/mL (≈ 0.0227 µM)	–	IC50 ([1]; A549, 48 h, read-out: ED50): 0.014 µg/mL (≈ 0.0353 µM); IC50 ([5]; HCT-15, 48 h, read-out: ED50): 0.011 µg/mL (≈ 0.0277 µM)
